Measured values: ChEMBL document CHEMBL3390841, “Design and synthesis of novel N,N-glycoside derivatives of 3,3-diindolylmethanes as potential antiproliferative agents” (Medchemcomm, 2012)
Active and inactive are the calls of the source. The rule behind the calls is not given here.

Columns and labels:
[1] = tested on: MCF7; test: Cytotoxicity against human MCF7 cells assessed as growth inhibition after 48 hrs by MTT assay; assay type: functional, cell-based
[2] = tested on: A549; test: Cytotoxicity against human A549 cells assessed as growth inhibition after 48 hrs by MTT assay; assay type: functional, cell-based
[3] = tested on: HeLa; test: Cytotoxicity against human HeLa cells assessed as growth inhibition after 48 hrs by MTT assay; assay type: functional, cell-based; parameters: unit not given here
[4] = tested on: HeLa; test: Cytotoxicity against human HeLa cells assessed as inhibition of colony formation at 0.1 to 1 umol after 5 days by crystal violet staining assay; assay type: functional, cell-based
[5] = tested on: HeLa; test: Induction of apoptosis in human HeLa cells assessed as upregulation of par-4 protein expression after 24 hrs by Western blot analysis; assay type: functional, cell-based
[6] = tested on: HeLa; test: Antimigratory activity against human HeLa cells in low serum containing medium at 0.3 to 1 umol after 24 hrs by wound healing assay; assay type: functional, cell-based
[7] = tested on: HeLa; test: Induction of apoptosis in human HeLa cells assessed as downregulation of GRP78 protein expression after 24 hrs by Western blot analysis; assay type: functional, cell-based
[8] = tested on: HeLa; test: Cell cycle arrest in human HeLa cells assessed as accumulation at sub-G1 phase at 1 umol after 24 hrs (reference value: 7.8%); assay type: functional
[9] = tested on: HeLa; test: Cell cycle arrest in human HeLa cells assessed as accumulation at sub-G1 phase at 0.1 umol after 24 hrs (reference value: 7.8%); assay type: functional
[10] = tested on: HeLa; test: Induction of apoptosis in human HeLa cells assessed as downregulation of Bcl-2 protein expression after 24 hrs by Western blot analysis; assay type: functional, cell-based
[11] = tested on: HeLa; test: Cell cycle arrest in human HeLa cells assessed as accumulation at sub-G1 phase at 0.3 umol after 24 hrs (reference value: 7.8%); assay type: functional
[12] = tested on: HeLa; test: Induction of apoptosis in human HeLa cells assessed as downregulation of survivin protein expression after 24 hrs by Western blot analysis; assay type: functional, cell-based
[13] = tested on: HeLa; test: Antimigratory activity against human HeLa cells in low serum containing medium at 25 nmol after 24 hrs by wound healing assay; assay type: functional, cell-based

| Compound | IC50 [1] | IC50 [2] | IC50 [3] | further results |
| --- | --- | --- | --- | --- |
| CN(C)c1ccc(C(c2c[nH]c3ccc(Br)cc23)c2c[nH]c3ccc(Br)cc23)cc1 | 24.9 µM | 25 µM | 12.8 |  |
| CCCC(c1c[nH]c2ccc(Br)cc12)c1c[nH]c2ccc(Br)cc12 | 3.6 µM | 6.5 µM | 3.9 |  |
| CCCCCCCC(c1c[nH]c2ccc(Br)cc12)c1c[nH]c2ccc(Br)cc12 | 5.5 µM | 3.5 µM | 1.3 | inhibition [4]: Active |
| COc1ccc(C(c2c[nH]c3ccc(Br)cc23)c2c[nH]c3ccc(Br)cc23)cc1 | 2.3 µM | 10 µM | 5.5 |  |
| Clc1ccc(C(c2c[nH]c3ccc(Br)cc23)c2c[nH]c3ccc(Br)cc23)cc1 | 3.5 µM | 8.5 µM | 4.8 | inhibition [4]: Active |
| Brc1ccc(C(c2c[nH]c3ccc(Br)cc23)c2c[nH]c3ccc(Br)cc23)cc1 | 3.2 µM | 5.6 µM | 1.5 | inhibition [4]: Active |
| Brc1ccc2[nH]cc(C(c3ccccc3)c3c[nH]c4ccc(Br)cc34)c2c1 | 5.5 µM | 7.5 µM | 0.9 |  |
| CCCCCCCC(c1c[nH]c2ccc(C#N)cc12)c1c[nH]c2ccc(C#N)cc12 | 2.5 µM | 26 µM | 7 |  |
| O=[N+]([O-])c1ccc(C(c2c[nH]c3ccc(Br)cc23)c2c[nH]c3ccc(Br)cc23)cc1 | 3.1 µM | 5.5 µM | 1.5 | inhibition [4]: Active |
| COc1cccc(C(c2c[nH]c3ccc(Br)cc23)c2c[nH]c3ccc(Br)cc23)c1OC | 89 µM | 100 µM | 64.5 |  |
| c1ccc(C(c2c[nH]c3ccccc23)c2c[nH]c3ccccc23)cc1 | 22.2 µM | 40 µM | 21.8 |  |
| CCCCCCCC(c1cn([C@@H]2O[C@H](CO)[C@@H](O)[C@H](O)[C@H]2O)c2ccc(Br)cc12)c1cn([C@@H]2O[C@H](CO)[C@@H](O)[C@H](O)[C@H]2O)c2ccc(Br)cc12 | 0.9 µM | 1.3 µM | 0.3 | Activity [5]: Dose-dependent effect; Activity [6]: Active; Activity [7]: Dose-dependent effect; Activity [8]: 22.4%; Activity [9]: 27.8%; Activity [10]: Dose-dependent effect; Activity [11]: 19.3%; inhibition [4]: Active; Activity [12]: Dose-dependent effect |
| Oc1cccc(C(c2c[nH]c3ccc(Br)cc23)c2c[nH]c3ccc(Br)cc23)c1 | 2.8 µM | 8 µM | 3.9 |  |
| O=[N+]([O-])c1ccc2[nH]cc(C(c3ccc(Br)cc3)c3c[nH]c4ccc([N+](=O)[O-])cc34)c2c1 | > 100 µM | > 100 µM | > 100 |  |
| Brc1ccc2[nH]cc(C(c3ccc4ccccc4c3)c3c[nH]c4ccc(Br)cc34)c2c1 | 7.1 µM | 8.5 µM | 4.3 |  |
| COc1ccc(OC)c(C(c2c[nH]c3ccc(Br)cc23)c2c[nH]c3ccc(Br)cc23)c1 | 2.8 µM | 10 µM | 5.1 |  |
| COc1ccc(C(c2c[nH]c3ccc(Br)cc23)c2c[nH]c3ccc(Br)cc23)cc1OC | 7.8 µM | 12 µM | 6.1 |  |
| N#Cc1ccc2[nH]cc(C(c3ccc(Cl)cc3)c3c[nH]c4ccc(C#N)cc34)c2c1 | 23.6 µM | > 100 µM | > 100 |  |

| Compound | IC50 [1] | IC50 [2] | IC50 [3] | further results |
| --- | --- | --- | --- | --- |
| CN[C@@H]1C[C@H]2O[C@@](C)([C@@H]1OC)n1c3ccccc3c3c4c(c5c6ccccc6n2c5c31)C(=O)NC4 [STAUROSPORINE] | 0.013 µM |  |  | Activity [13]: Active |
| Oc1ccc(C(c2c[nH]c3ccc(Br)cc23)c2c[nH]c3ccc(Br)cc23)cc1 | 3.5 µM |  |  |  |
| CC(=O)OC[C@H]1O[C@@H](n2cc(C(c3ccc([N+](=O)[O-])cc3)c3cn([C@@H]4O[C@H](COC(C)=O)[C@@H](OC(C)=O)[C@H](OC(C)=O)[C@H]4OC(C)=O)c4ccc(Br)cc34)c3cc(Br)ccc32)[C@H](OC(C)=O)[C@@H](OC(C)=O)[C@@H]1OC(C)=O | > 100 µM | 8 µM | 3.5 |  |
| N#Cc1ccc2[nH]cc(C(c3ccc(Br)cc3)c3c[nH]c4ccc(C#N)cc34)c2c1 | 27.1 µM | > 100 µM | > 100 |  |
| N#Cc1ccc2[nH]cc(C(c3ccc([N+](=O)[O-])cc3)c3c[nH]c4ccc(C#N)cc34)c2c1 | 23.6 µM | > 100 µM | > 100 |  |
| CCCCCCCC(c1c[nH]c2ccc([N+](=O)[O-])cc12)c1c[nH]c2ccc([N+](=O)[O-])cc12 | 5.8 µM | 12.5 µM | 35 |  |
| OC[C@H]1O[C@@H](n2cc(C(c3ccc(Br)cc3)c3cn([C@@H]4O[C@H](CO)[C@@H](O)[C@H](O)[C@H]4O)c4ccc(Br)cc34)c3cc(Br)ccc32)[C@H](O)[C@@H](O)[C@@H]1O | 51.1 µM | 2.5 µM | 27 |  |
| COc1ccc(C(c2c[nH]c3ccc(Br)cc23)c2c[nH]c3ccc(Br)cc23)c(OC)c1 | 77.5 µM | 100 µM | 63.2 |  |
| CC(c1ccccc1)(c1c[nH]c2ccccc12)c1c[nH]c2ccccc12 | 4 µM | 8.5 µM | 4.2 |  |
| CC(=O)OC[C@H]1O[C@@H](n2cc(C(c3ccc(Cl)cc3)c3cn([C@@H]4O[C@H](COC(C)=O)[C@@H](OC(C)=O)[C@H](OC(C)=O)[C@H]4OC(C)=O)c4ccc(Br)cc34)c3cc(Br)ccc32)[C@H](OC(C)=O)[C@@H](OC(C)=O)[C@@H]1OC(C)=O | > 100 µM | 24 µM | 70 |  |
| O=[N+]([O-])c1ccc(C(c2c[nH]c3ccc([N+](=O)[O-])cc23)c2c[nH]c3ccc([N+](=O)[O-])cc23)cc1 | 22.5 µM | > 100 µM | > 100 |  |
| OC[C@H]1O[C@@H](n2cc(C(c3ccc(Cl)cc3)c3cn([C@@H]4O[C@H](CO)[C@@H](O)[C@H](O)[C@H]4O)c4ccc(Br)cc34)c3cc(Br)ccc32)[C@H](O)[C@@H](O)[C@@H]1O | 53.2 µM | 2.7 µM | 32 |  |
| O=[N+]([O-])c1ccc2[nH]cc(C(c3ccc(Cl)cc3)c3c[nH]c4ccc([N+](=O)[O-])cc34)c2c1 | > 100 µM | > 100 µM | > 100 |  |
| O=[N+]([O-])c1ccc(C(c2cn([C@@H]3O[C@H](CO)[C@@H](O)[C@H](O)[C@H]3O)c3ccc(Br)cc23)c2cn([C@@H]3O[C@H](CO)[C@@H](O)[C@H](O)[C@H]3O)c3ccc(Br)cc23)cc1 | 66.7 µM | 2.4 µM | 30 |  |
| CC[C@@]1(O)C(=O)OCc2c1cc1n(c2=O)Cc2cc3ccccc3nc2-1 [CAMPTOTHECIN] |  |  |  | Activity [9]: 33.1% |
| Brc1ccc2[nH]cc(C(c3c[nH]c4ccc(Br)cc34)C3CCCCC3)c2c1 | 4.1 µM | 5.5 µM | 3.2 |  |
| CCCCCCCC(c1cn([C@@H]2O[C@H](COC(C)=O)[C@@H](OC(C)=O)[C@H](OC(C)=O)[C@H]2OC(C)=O)c2ccc(Br)cc12)c1cn([C@@H]2O[C@H](COC(C)=O)[C@@H](OC(C)=O)[C@H](OC(C)=O)[C@H]2OC(C)=O)c2ccc(Br)cc12 | > 100 µM | 17 µM | 10 |  |
| CC(=O)OC[C@H]1O[C@@H](n2cc(C(c3ccc(Br)cc3)c3cn([C@@H]4O[C@H](COC(C)=O)[C@@H](OC(C)=O)[C@H](OC(C)=O)[C@H]4OC(C)=O)c4ccc(Br)cc34)c3cc(Br)ccc32)[C@H](OC(C)=O)[C@@H](OC(C)=O)[C@@H]1OC(C)=O | > 100 µM | 24 µM | 70 |  |
